From article PMC13588620, “Linear antibody epitope prediction using AlphaFold2” (eLife, 2026)

Test system: mBG17 binding to SARS-CoV-2 nucleocapsid protein
Test: Peptide competition ELISA with overlapping nucleocapsid peptides
Design: species or system mouse
Conditions: 40 μg (approximately 30 nMol) peptide incubated with 40 μl mBG17 for 1 h at room temperature, absorbance at 450 nm, n=3, percentage of binding from no-peptide control

Row | Sequence | competition of mBG17 binding to the SARS-CoV-2 nucleocapsid protein in the ELISA
1 | QLQQSMSSAD [a.a. 406–415, synthetic 10 a.a. peptide of SARS-CoV-2 nucleocapsid protein] | neither was able to compete
2 | PAADLDDFSK [a.a. 296–405, synthetic 10 a.a. peptide of SARS-CoV-2 nucleocapsid protein overlapping a.a; 401–410 at the N-terminus] | neither was able to compete
3 | DDFSKQLQQS [a.a. 401–410] | almost complete competition
